# In patent US12336982B2 (RODEO THERAPEUTICS CORPORATION, priority 2018, dated 2025):
# pIC50: −log10 of the molar value.
# Biological target: T1, recombinant 15-PGDH (Homo sapiens, UniProt P15428)
# T1 sequence (P15428 1-266): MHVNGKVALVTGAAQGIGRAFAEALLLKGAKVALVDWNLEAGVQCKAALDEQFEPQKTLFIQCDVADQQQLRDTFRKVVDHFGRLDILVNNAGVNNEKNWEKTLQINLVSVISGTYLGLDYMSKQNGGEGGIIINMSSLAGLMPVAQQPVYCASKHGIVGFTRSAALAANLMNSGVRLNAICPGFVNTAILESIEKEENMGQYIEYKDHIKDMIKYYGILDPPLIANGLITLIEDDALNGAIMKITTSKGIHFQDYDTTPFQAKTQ
# Type: biochemical
# Conditions: recombinant human 15-PGDH, in vitro; read-out: PDGH Assay-IC50
# Excerpt: The Recombinant 15-PGDH is human unless otherwise specified.
row,pIC50,Structure (SMILES)
1,> 8.60,COCCC[S+]([O-])c1sc2nc(-c3cnc4nn(CCO)cc4c3)cc(C3CCC3)c2c1N (centres unmarked) [Example 270]
2,≤ 8.00,Nc1c([S@@+]([O-])C2CCC2)sc2nc(-c3cncnc3)cc(-c3ccon3)c12 [Example 310]
3,> 8.60,Nc1c([S+]([O-])C2CCC2)sc2nc(-c3cnc4ncnn4c3)cc(-c3ccccc3)c12 (centres unmarked) [Example 401]
4,> 8.60,COCC[S+]([O-])c1sc2nc(-c3cnc4c(c3)ncn4C)cc(C3CCC3)c2c1N (centres unmarked) [Example 376]
5,> 8.60,Cn1cc(-c2cc(-c3ccc(OCCO)cc3)c3c(N)c([S+]([O-])C4CCC4)sc3n2)cn1 (centres unmarked) [Example 412]
6,> 8.60,COCC[S+]([O-])c1sc2nc(-c3cnc(N)nc3)cc(-c3cnn(C)c3)c2c1N (centres unmarked) [Example 196]
7,> 8.60,Cn1nccc1-c1cc(-c2cnc3c(c2)CNC3=O)nc2sc([S+]([O-])C3CCC3)c(N)c12 (centres unmarked) [Example 305]
8,> 8.60,COCC[S+]([O-])c1sc2nc(-c3cncnc3)cc(C3CCC3)c2c1N (centres unmarked) [Example 251]
9,> 8.60,Cn1nccc1-c1cc(-c2cnc(O)nc2)nc2sc([S@+]([O-])C3CCC3)c(N)c12 [Example 224]
10,> 8.60,Cn1nccc1-c1cc(-c2ccnnc2)nc2sc([S+]([O-])C3CCC3)c(N)c12 (centres unmarked) [Example 345]
11,> 8.60,COCC[S@@+]([O-])c1sc2nc(-c3cnc4nn(C)cc4c3)cc(C(C)C)c2c1N [Example 408]
12,> 8.60,COCCC[S+]([O-])c1sc2nc(-c3cncnc3)cc(-c3cccnn3)c2c1N (centres unmarked) [Example 236]
13,> 8.60,Cn1nccc1-c1cc(-c2cnc(O)nc2)nc2sc([S+]([O-])C3CCC3)c(N)c12 (centres unmarked) [Example 223]
14,≤ 8.00,COCC[S@+]([O-])c1sc2nc(-c3cnc4nn(C)cc4c3)cc(-c3ccn(C)n3)c2c1N [Example 344]
15,≤ 8.00,COCC[S+]([O-])c1sc2nc(-c3cnc4nncn4c3)cc(-c3ccccc3)c2c1N (centres unmarked) [Example 358]
16,> 8.60,COCC[S+]([O-])c1sc2nc(-c3cnc4c(c3)CN(C)C4=O)cc(-c3ccccc3)c2c1N (centres unmarked) [Example 384]
17,8.00 to 8.60,COCC[S+]([O-])c1sc2nc(-c3cnc(NCCO)nc3)nc(-c3ccccc3)c2c1N (centres unmarked) [Example 432]
18,≤ 8.00,COCC[S@+]([O-])c1sc2nc(-c3cnc4ncn(C)c4c3)cc(C3CC3)c2c1N [Example 406]
19,≤ 8.00,COCC[S@+]([O-])c1sc2nc(-c3cnc4nn(C)cc4c3)cc(-c3ccnn3C)c2c1N [Example 336]
20,> 8.60,COCC[S+]([O-])c1sc2nc(-c3cn[nH]c(=O)c3)cc(-c3ccccc3)c2c1N (centres unmarked) [Example 394]
21,≤ 8.00,CNc1ncc(-c2cc(-c3ccnn3C)c3c(N)c([S@@+]([O-])CCOC)sc3n2)cn1 [Example 332]

row,pIC50,Structure (SMILES)
1,≤ 8.00,COCC[S@+]([O-])c1sc2nc(-c3cnn(C)c3)cc(C3CC3)c2c1N [Example 276]
2,≤ 8.00,Cn1nccc1-c1cc(-c2cnc3c(c2)nnn3C)nc2sc([S@@+]([O-])C3CCC3)c(N)c12 [Example 327]
3,> 8.60,Cn1cc2cc(-c3cc(C4CC4)c4c(N)c([S+]([O-])C5CCC5)sc4n3)cnc2n1 (centres unmarked) [Example 286]
4,≤ 8.00,Cn1cc2cc(-c3cc(C(F)(F)F)c4c(N)c([S@@+]([O-])C5CCC5)sc4n3)cnc2n1 [Example 422]
5,> 8.60,COCCC[S+]([O-])c1sc2nc(-c3cncnc3)cc(-c3cnccn3)c2c1N (centres unmarked) [Example 233]
6,> 8.60,COCC[S+]([O-])c1sc2nc(-c3cnn4ccnc4c3)cc(-c3ccnn3C)c2c1N (centres unmarked) [Example 318]
7,> 8.60,COCC[S+]([O-])c1sc2nc(-c3cnc4c(c3)ncn4C)cc(C3CCC3)c2c1N (centres unmarked) [Example 373]
8,≤ 8.00,COCC[S@+]([O-])c1sc2nc(-c3ccnnc3)cc(-c3ccccc3)c2c1N [Example 212]
9,> 8.60,COCC[S+]([O-])c1sc2nc(-c3cnn(C)c3)cc(C(F)(F)F)c2c1N (centres unmarked) [Example 426]
10,≤ 8.00,COCC[S@+]([O-])c1sc2nc(-c3cnc4nn(C)nc4c3)cc(-c3ccnn3C)c2c1N [Example 382]
11,> 8.60,Cn1nccc1-c1cc(-c2cnc3nccn3c2)nc2sc([S+]([O-])C3CCC3)c(N)c12 (centres unmarked) [Example 320]
12,> 8.60,COCC[S+]([O-])c1sc2nc(-c3cnc4nn(C)cc4c3)cc(-c3ccn(C)n3)c2c1N (centres unmarked) [Example 342]
13,> 8.60,Cn1cc2cc(-c3cc(C(F)(F)F)c4c(N)c([S+]([O-])C5CCC5)sc4n3)cnc2n1 (centres unmarked) [Example 421]
14,> 8.60,COCC[S+]([O-])c1sc2nc(-c3cncnc3)cc(-c3ncccn3)c2c1N (centres unmarked) [Example 229]
15,> 8.60,COCC[S@@+]([O-])c1sc2nc(-c3cnc4c(c3)CNC4=O)cc(-c3ccccc3)c2c1N [Example 242]
16,≤ 8.00,COCC[S@+]([O-])c1sc2nc(-c3cnc4ncn(C)c4c3)cc(-c3ccccc3)c2c1N [Example 363]
17,≤ 8.00,Cn1nccc1-c1cc(-c2cnc(O)nc2)nc2sc([S@@+]([O-])C3CCC3)c(N)c12 [Example 225]
18,> 8.60,Nc1c([S@+]([O-])C2CCC2)sc2nc(-c3cc(=O)[nH]cn3)cc(-c3ccccc3)c12 [Example 219]
19,≤ 8.00,COCC[S+]([O-])c1sc2nc(-c3cnc4nn(C)cc4c3)cc(C(F)(F)F)c2c1NC(C)=O (centres unmarked) [Example 208]
20,≤ 8.00,COCCC[S@+]([O-])c1sc2nc(-c3cncnc3)cc(C(F)(F)F)c2c1N [Example 201]
21,> 8.60,COCCC[S+]([O-])c1sc2nc(-c3cnc4nn(C)cc4c3)cc(C(F)(F)F)c2c1N (centres unmarked) [Example 420]

# The next lines start with the compound.
row,Structure (SMILES),pIC50
1,COCCC[S+]([O-])c1sc2nc(-c3cnc(N(C)CCO)nc3)cc(C(F)(F)F)c2c1N (centres unmarked) [Example 187],8.00 to 8.60
2,COCC[S@@+]([O-])c1sc2nc(-c3cncnc3)cc(-c3ccccc3)c2c1N [Example 85],> 8.60
3,CS(=O)(=O)Nc1ncc(-c2cc(-c3cccnc3)c3c(N)c([S+]([O-])C4CCC4)sc3n2)cn1 (centres unmarked) [Example 93],> 8.60
4,CN(CCO)c1ncc(-c2cc(-c3ccccc3)c3c(N)c([S+]([O-])C4CCC4)sc3n2)cn1 (centres unmarked) [Example 144],> 8.60
5,COC(=O)Nc1ncc(-c2cc(-c3ccccn3)c3c(N)c([S+]([O-])C4CCC4)sc3n2)cn1 (centres unmarked) [Example 113],8.00 to 8.60
6,COCCC[S+]([O-])c1sc2nc(-c3ccc(NCCO)nc3)cc(-c3ccc(F)cc3)c2c1N (centres unmarked) [Example 70],8.00 to 8.60
7,Cn1cnc(-c2cc(-c3cncnc3)nc3sc([S@@+]([O-])C4CCC4)c(N)c23)c1 [Example 65],≤ 8.00
8,Nc1c([S+]([O-])C2CCC2)sc2nc(-c3cnc(NCCO)nc3)cc(-c3ccccc3F)c12 (centres unmarked) [Example 152],> 8.60
9,Nc1c([S+]([O-])C2CCC2)sc2nc(-c3cnc(NCCOCCO)nc3)cc(-c3ccccc3)c12 (centres unmarked) [Example 141],> 8.60
10,Cc1cc(-c2cc(-c3cncnc3)nc3sc([S+]([O-])C4CCC4)c(N)c23)ccn1 (centres unmarked) [Example 154],> 8.60
11,COCCC[S+]([O-])c1sc2nc(-c3ccc(N)nc3)cc(C(F)(F)F)c2c1N (centres unmarked) [Example 134],8.00 to 8.60
12,COCC[S@@+]([O-])c1sc2nc(-c3cccnc3)nc(-c3ccccc3)c2c1N [Example 55],> 8.60
13,Nc1c([S+]([O-])C2CCC2)sc2nc(-c3ccc(NCCO)nc3)cc(-c3ccccn3)c12 (centres unmarked) [Example 83],> 8.60
14,Nc1c([S+]([O-])C2CCC2)sc2nc(-c3cnc(NCCO)nc3)cc(-c3cccc(Cl)c3)c12 (centres unmarked) [Example 192],> 8.60
15,Nc1ncc(-c2cc(-c3ccc(C4COC4)cc3)c3c(N)c([S+]([O-])C4CCC4)sc3n2)cn1 (centres unmarked) [Example 143],> 8.60
16,CC(=O)N1CCC(c2cc(-c3ccc(F)cc3)c3c(N)c([S+]([O-])C4CCC4)sc3n2)CC1 (centres unmarked) [Example 59],≤ 8.00

row,Structure (SMILES),pIC50
1,CNC(=O)c1ncc(-c2cc(-c3ccccc3)c3c(N)c([S+]([O-])C4CCC4)sc3n2)cn1 (centres unmarked) [Example 53],> 8.60
2,Cn1cc(-c2cc(-c3cccnc3)c3c(N)c([S+]([O-])C4CCC4)sc3n2)ccc1=O (centres unmarked) [Example 89],> 8.60
3,Nc1c([S+]([O-])C2CCC2)sc2nc(-c3cncnc3)cc(-c3ccc(C4COC4)nc3)c12 (centres unmarked) [Example 147],> 8.60
4,Nc1c([S+]([O-])C2CCC2)sc2nc(-c3cncnc3)cc(-c3cccnc3)c12 (centres unmarked) [Example 84],> 8.60
5,Nc1c([S+]([O-])C2CCC2)sc2nc(-c3cnc(NCC(=O)O)nc3)cc(-c3ccccc3)c12 (centres unmarked) [Example 155],> 8.60
6,CN(C)CCOc1ncc(-c2cc(-c3ccccc3)c3c(N)c([S+]([O-])C4CCC4)sc3n2)cn1 (centres unmarked) [Example 47],8.00 to 8.60
7,CN1CCN(c2ncc(-c3cc(-c4ccccc4)c4c(N)c([S@+]([O-])C5CCC5)sc4n3)cn2)CC1 [Example 48],> 8.60
8,COCCC[S@@+]([O-])c1sc2nc(-c3cncnc3)cc(-c3ncccn3)c2c1N [Example 111],> 8.60
9,Nc1c([S+]([O-])C2CCC2)sc2nc(-c3cnc(N4CCOCC4)nc3)cc(-c3ccccc3)c12 (centres unmarked) [Example 194],8.00 to 8.60
10,Nc1c([S+]([O-])C2CCC2)sc2nc(-c3cccnc3)nc(C3CC3)c12 (centres unmarked) [Example 189],> 8.60
11,Nc1c([S+]([O-])C2CCC2)sc2nc(-c3cnc(NCCO)nc3)cc(-c3cncc(F)c3)c12 (centres unmarked) [Example 115],> 8.60
12,Nc1c([S+]([O-])C2CCC2)sc2nc(-c3ccc(=O)[nH]c3)cc(-c3ccc(C4COC4)cc3)c12 (centres unmarked) [Example 174],8.00 to 8.60
13,Nc1c([S+]([O-])C2CCC2)sc2nc(-c3cnc(NCCO)nc3)cc(C(F)(F)F)c12 (centres unmarked) [Example 138],8.00 to 8.60
14,COCC[S@@+]([O-])c1sc2nc(-c3cnc(N)nc3)cc(-c3ccccc3)c2c1N [Example 87],> 8.60
15,Nc1c([S+]([O-])C2CCC2)sc2nc(-c3cnc(NCCO)nc3)cc(-c3ccccc3)c12 (centres unmarked) [Example 44],> 8.60
16,Nc1c([S+]([O-])C2CCC2)sc2nc(-c3cccnc3)cc(-c3cccnc3)c12 (centres unmarked) [Example 50],> 8.60
